Target: T1, Arabidopsis ADCS (PabAa-PabAb) (Arabidopsis thaliana, UniProt Q8LPN3)
T1 construct: bifunctional PabAa-PabAb ADC synthase in pLOI707HE; extract of E. coli BN1163 (pabA pabB mutant)
T1 sequence (Q8LPN3 46-919): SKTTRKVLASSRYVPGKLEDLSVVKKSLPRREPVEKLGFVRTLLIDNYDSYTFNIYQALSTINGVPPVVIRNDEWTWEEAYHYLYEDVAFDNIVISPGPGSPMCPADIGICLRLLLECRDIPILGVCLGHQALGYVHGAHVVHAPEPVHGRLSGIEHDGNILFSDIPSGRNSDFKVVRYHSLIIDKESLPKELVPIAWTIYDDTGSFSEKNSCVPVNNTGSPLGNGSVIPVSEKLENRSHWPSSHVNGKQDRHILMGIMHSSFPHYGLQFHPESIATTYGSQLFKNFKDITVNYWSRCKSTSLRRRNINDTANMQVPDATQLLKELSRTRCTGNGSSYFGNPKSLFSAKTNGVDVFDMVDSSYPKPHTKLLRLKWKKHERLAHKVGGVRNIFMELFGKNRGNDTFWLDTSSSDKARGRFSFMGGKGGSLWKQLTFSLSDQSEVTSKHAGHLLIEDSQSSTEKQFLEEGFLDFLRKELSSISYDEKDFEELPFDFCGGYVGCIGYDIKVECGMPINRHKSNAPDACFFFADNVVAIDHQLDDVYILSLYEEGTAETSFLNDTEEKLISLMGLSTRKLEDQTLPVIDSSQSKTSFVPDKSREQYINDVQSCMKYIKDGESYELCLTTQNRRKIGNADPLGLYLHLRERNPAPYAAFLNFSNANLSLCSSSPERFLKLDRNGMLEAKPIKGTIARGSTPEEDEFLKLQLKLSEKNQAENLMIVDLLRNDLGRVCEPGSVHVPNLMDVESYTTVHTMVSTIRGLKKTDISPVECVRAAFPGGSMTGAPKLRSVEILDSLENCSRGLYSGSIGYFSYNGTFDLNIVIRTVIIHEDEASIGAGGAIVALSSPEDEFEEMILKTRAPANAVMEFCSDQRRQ
Assay: pABA formation in cell extract, coupled to E. coli PabC (ADC lyase), HPLC with fluorescence detection
Assay type: biochemical
Settings: E. coli PabC extract added, 37 °C, 1 h

For C=C(O[C@@H]1C=C(C(=O)O)C=C[C@H]1O)C(=O)O [chorismate], the “pABA formation in cell extract, coupled to E. coli PabC (ADC lyase), HPLC with f” value (glutamine as amino donor) was “Arabidopsis PabAa-PabAb formed pABA only if PabAc was added”.

For NC(=O)CC[C@H](N)C(=O)O [glutamine], the “pABA formation in cell extract, coupled to E. coli PabC (ADC lyase), HPLC with f” value (chorismate as co-substrate) was “Arabidopsis PabAa-PabAb formed pABA only if PabAc was added”.

Source: paper PMC1971073, “Comparative genomics of bacterial and plant folate synthesis and salvage: predictions and validations” (BMC Genomics, 2007)
